Data: US20020068360A1, “Cyclohexanediol cryoprotectant compounds” (priority 2000, published 2002)

System: AV5 cells
Assay: Cell viability (Alamar Blue) of AV5 cells after cryopreservation and warming
Type: cell-based, porcine
Conditions: 0 to 1 M CHD added to 1 M DMSO or to DMSO/formamide/propanediol (final 1 M), normalized to conventional cryoprotectant alone, FIGS. 2 and 3
Experimental: A primary cell strain called AV5 was used for these experiments. AV5 cells are derived from porcine heart valve leaflets. Hearts were obtained from pigs and the heart valve leaflets were then removed and washed several times with sterile phosphate-buffered saline (PBS). Small pieces (˜1 mm^2) were cut and placed into a 24-well microtiter plate coated with 0.2% gelatin. Dulbecco's Modified Eagle's Medium (DMEM) with 10% fetal calf serum (FCS) was added to just cover the bottom of the well and the plate was left at 37° C. with 5% CO2 in air until visible outgrowth occurred. […]
Cell viability was then determined using the non-invasive metabolic indicator Alamar Blue (Trek Diagnostics). […] Fluorescence from Alamar Blue was read in a fluorescent microplate reader (Fmax fluorescent microplate reader by […]) using an excitation wavelength of 544 nm and an emission wavelength of 590 nm.
The first set of experiments involved using two CPA compositions, either 1 M dimethyl sulfoxide (DMSO) (left bar of graph at each concentration of 1,3CHD in FIG. 2 and 1,4CHD in FIG. 3) or a combination of DMSO, formamide and propanediol at a final concentration of 1 M (right bar of graph at each concentration of 1,3CHD in FIG. 2 and 1,4CHD in FIG. 3). […] Cell viability was assessed using the assay described above. […]

Row | Structure (SMILES) | relative cell viability after freezing
1 | OC1CCCC(O)C1 (centres unmarked) [1,3CHD, 1,3-cyclohexanediol] | significantly increased
2 | OC1CCC(O)CC1 (centres unmarked) [1,4CHD, 1,4-cyclohexanediol] | significantly increased
